Read-outs that look alike come from different tables or passages of the source. Bridge positions count the residues as written; N and C are the ends. Peptide text beside a SMILES is read from it.
Biological target: T1, endothelin receptor (Bos taurus, UniProt P28088)
T1 construct: from tissue; host or cells: bovine cerebellar membrane fraction
T1 sequence (P28088 27-441): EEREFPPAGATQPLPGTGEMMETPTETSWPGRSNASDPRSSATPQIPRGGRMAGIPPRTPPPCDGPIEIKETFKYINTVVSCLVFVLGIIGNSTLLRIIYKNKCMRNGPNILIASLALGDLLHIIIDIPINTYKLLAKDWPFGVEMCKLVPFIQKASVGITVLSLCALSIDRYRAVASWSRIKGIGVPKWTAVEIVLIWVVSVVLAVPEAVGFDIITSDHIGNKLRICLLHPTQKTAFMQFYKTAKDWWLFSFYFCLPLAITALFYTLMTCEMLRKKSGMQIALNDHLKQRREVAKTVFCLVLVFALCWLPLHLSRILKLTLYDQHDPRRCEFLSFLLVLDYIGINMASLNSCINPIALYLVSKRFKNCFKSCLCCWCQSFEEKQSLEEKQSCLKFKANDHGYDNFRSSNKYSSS
Experiment: Endothelin receptor-antagonizing effect: 125I-endothelin-1 binding to bovine cerebellar tissue membrane fraction

[1] = bovine cerebellar tissue membrane fraction

Row | IC50 [1] | SMILES | IC50
1 | > 51 nM | CC[C@H](C)[C@H](NC(=O)[C@H](CC(=O)O)NC(=O)[C@H](CC(C)C)NC(=O)[C@H](Cc1c[nH]cn1)NC(=O)[C@H](C)NC(=O)[C@H](Cc1c[nH]c2ccccc12)NC(=O)[C@@H]1CC(=O)NCC(=O)N[C@@H](CC(N)=O)C(=O)N[C@@H](Cc2c[nH]c3ccccc23)C(=O)N[C@@H](Cc2c[nH]cn2)C(=O)NCC(=O)N[C@@H]([C@@H](C)O)C(=O)N[C@@H](C)C(=O)N2CCC[C@H]2C(=O)N1)C(=O)N[C@H](C(=O)N[C@@H](Cc1c[nH]c2ccccc12)C(=O)O)[C@@H](C)CC [Compound I-35] (GNWHGTAPDWAHLDIIW-OH; lactam N-9 (inferred); C-terminus assumed) | 
2 |  | C[C@@H]1NC(=O)[C@H]([C@@H](C)O)NC(=O)CNC(=O)[C@H](Cc2c[nH]cn2)NC(=O)[C@H](Cc2c[nH]c3ccccc23)NC(=O)[C@H](CC(N)=O)NC(=O)CNC(=O)C[C@@H](C(=O)N[C@@H](Cc2c[nH]c3ccccc23)C(=O)N[C@@H](CC(N)=O)C(=O)N[C@@H](Cc2ccc(O)cc2)C(=O)N[C@@H](Cc2ccc(O)cc2)C(=O)N[C@@H](Cc2c[nH]c3ccccc23)C(=O)O)NC(=O)[C@@H]2CCCN2C1=O [Compound I-32] (GNWHGTAPDWNYYW-OH; lactam N-9) | > 570 nM
3 |  | CC(=O)N[C@H]1CSSC[C@@H](C(=O)N[C@@H](Cc2c[nH]c3ccccc23)C(=O)N[C@@H](Cc2ccccc2)C(=O)N[C@@H](Cc2ccccc2)C(=O)N[C@@H](CC(N)=O)C(=O)N[C@@H](Cc2ccc(O)cc2)C(=O)N[C@@H](Cc2ccc(O)cc2)C(=O)N[C@@H](Cc2c[nH]c3ccccc23)C(=O)O)NC(=O)[C@@H]2CCCN2C(=O)[C@H](C)NC(=O)[C@H]([C@@H](C)O)NC(=O)CNC(=O)[C@H](Cc2c[nH]cn2)NC(=O)[C@H](Cc2c[nH]c3ccccc23)NC(=O)[C@H](CC(N)=O)NC1=O [Compound I-8] (Ac-CNWHGTAPCWFFNYYW-OH; disulfide 1-9) | > 5000 nM
4 | > 45 nM | CC[C@H](C)[C@H](NC(=O)[C@H](CC(=O)O)NC(=O)[C@H](CC(C)C)NC(=O)[C@H](Cc1c[nH]cn1)NC(=O)[C@H](C)NC(=O)[C@H](Cc1ccc(O)cc1)NC(=O)[C@H](Cc1ccc(O)cc1)NC(=O)[C@H](CC(N)=O)NC(=O)[C@H](Cc1ccccc1)NC(=O)[C@H](Cc1ccccc1)NC(=O)[C@H](Cc1c[nH]c2ccccc12)NC(=O)[C@@H]1CC(=O)NCC(=O)N[C@@H](CC(N)=O)C(=O)N[C@@H](Cc2c[nH]c3ccccc23)C(=O)N[C@@H](Cc2c[nH]cn2)C(=O)NCC(=O)N[C@@H]([C@@H](C)O)C(=O)N[C@@H](C)C(=O)N2CCC[C@H]2C(=O)N1)C(=O)N[C@H](C(=O)N[C@@H](Cc1c[nH]c2ccccc12)C(=O)O)[C@@H](C)CC [Compound I-40] (GNWHGTAPDWFFNYYAHLDIIW-OH; lactam N-9 (inferred); C-terminus assumed) | 
5 | < 0.13 nM | CC[C@H](C)[C@H](NC(=O)[C@H](CC(=O)O)NC(=O)[C@H](CC(C)C)NC(=O)[C@H](Cc1c[nH]cn1)NC(=O)[C@H](C)NC(=O)[C@H](Cc1ccccc1)NC(=O)[C@H](Cc1ccc(O)cc1)NC(=O)[C@@H](NC(=O)[C@H](Cc1c[nH]c2ccccc12)NC(=O)[C@H](CC(=O)O)NC(=O)[C@@H]1CCCN1C(=O)[C@H](C)NC(=O)[C@@H](NC(=O)CNC(=O)[C@H](Cc1c[nH]cn1)NC(=O)[C@H](Cc1c[nH]c2ccccc12)NC(=O)[C@H](CC(N)=O)NC(=O)CN)[C@@H](C)O)C(C)C)C(=O)N[C@H](C(=O)N[C@@H](Cc1c[nH]c2ccccc12)C(=O)O)[C@@H](C)CC [Compound I-26] | 
6 | 0.83 nM | CC[C@H](C)[C@H](NC(=O)[C@H](CC(=O)O)NC(=O)[C@H](CC(C)C)NC(=O)[C@H](Cc1c[nH]cn1)NC(=O)[C@H](C)NC(=O)[C@H](Cc1ccc(O)cc1)NC(=O)[C@H](Cc1ccc(O)cc1)NC(=O)[C@@H](NC(=O)[C@H](Cc1c[nH]c2ccccc12)NC(=O)[C@H](CC(=O)O)NC(=O)[C@@H]1CCCN1C(=O)[C@H](C)NC(=O)[C@@H](NC(=O)CNC(=O)[C@H](Cc1c[nH]cn1)NC(=O)[C@H](Cc1c[nH]c2ccccc12)NC(=O)[C@H](CC(N)=O)NC(=O)CN)[C@@H](C)O)C(C)C)C(=O)N[C@H](C(=O)N[C@@H](Cc1c[nH]c2ccccc12)C(=O)O)[C@@H](C)CC [Compound I-37] | 
7 |  | C[C@@H]1NC(=O)[C@H](C)NC(=O)[C@H]([C@@H](C)O)NC(=O)CNC(=O)[C@H](Cc2c[nH]cn2)NC(=O)[C@H](Cc2c[nH]c3ccccc23)NC(=O)[C@H](CC(N)=O)NC(=O)CNC(=O)C[C@@H](C(=O)N[C@@H](Cc2c[nH]c3ccccc23)C(=O)N[C@@H](Cc2ccccc2)C(=O)N[C@@H](Cc2ccccc2)C(=O)N[C@@H](CC(N)=O)C(=O)N[C@@H](Cc2ccc(O)cc2)C(=O)N[C@@H](Cc2ccc(O)cc2)C(=O)N[C@@H](Cc2c[nH]c3ccccc23)C(=O)O)NC1=O [Compound I-36] (GNWHGTAADWFFNYYW-OH; lactam N-9) | > 570 nM
8 |  | CC[C@H](C)[C@H](NC(=O)[C@@H](NC(=O)[C@H](CC(=O)O)NC(=O)[C@H](CCC(N)=O)NC(=O)[C@H](Cc1c[nH]cn1)NC(=O)[C@H](C)NC(=O)[C@H](Cc1ccccc1)NC(=O)[C@H](Cc1ccc(O)cc1)NC(=O)[C@H](CC(C)C)NC(=O)[C@H](Cc1c[nH]c2ccccc12)NC(=O)[C@H](CC(=O)O)NC(=O)[C@@H]1CCCN1C(=O)[C@H](C)NC(=O)[C@@H](NC(=O)CNC(=O)[C@H](Cc1c[nH]cn1)NC(=O)[C@H](Cc1c[nH]c2ccccc12)NC(=O)[C@H](CC(N)=O)NC(=O)CN)[C@@H](C)O)C(C)C)C(=O)N[C@@H](Cc1c[nH]c2ccccc12)C(=O)O [Compound I-38] | 0.33 nM
9 |  | C[C@@H]1NC(=O)[C@H]([C@@H](C)O)NC(=O)CNC(=O)[C@H](Cc2c[nH]cn2)NC(=O)[C@H](Cc2c[nH]c3ccccc23)NC(=O)[C@H](CC(N)=O)NC(=O)CNC(=O)C[C@@H](C(=O)N[C@@H](Cc2c[nH]c3ccccc23)C(=O)N[C@@H](Cc2ccccc2)C(=O)N[C@@H](Cc2ccccc2)C(=O)N[C@@H](CC(N)=O)C(=O)N[C@@H](Cc2ccc(O)cc2)C(=O)N[C@@H](Cc2ccc(O)cc2)C(=O)N[C@@H](Cc2ccc3ccccc3c2)C(=O)O)NC(=O)[C@@H]2CCCN2C1=O [Compound I-49] | 6.3 nM
10 |  | C[C@@H]1NC(=O)[C@H]([C@@H](C)O)NC(=O)CNC(=O)[C@H](Cc2c[nH]cn2)NC(=O)[C@H](Cc2c[nH]c3ccccc23)NC(=O)[C@H](CC(N)=O)NC(=O)CNC(=O)C[C@@H](C(=O)N[C@@H](Cc2c[nH]c3ccccc23)C(=O)N[C@@H](Cc2ccccc2)C(=O)N[C@@H](Cc2ccccc2)C(=O)N[C@@H](CC(N)=O)C(=O)N[C@@H](Cc2ccc(O)cc2)C(=O)N[C@@H](Cc2ccc(O)cc2)C(=O)N[C@@H](Cc2c[nH]c3ccccc23)C(=O)N[C@@H](CC(N)=O)C(=O)N[C@@H](Cc2ccc(O)cc2)C(=O)N[C@@H](Cc2ccc(O)cc2)C(=O)N[C@@H](Cc2c[nH]c3ccccc23)C(=O)O)NC(=O)[C@@H]2CCCN2C1=O [Compound I-19] (GNWHGTAPDWFFNYYWNYYW-OH; lactam N-9) | 370 nM
11 |  | CC[C@H](C)[C@H](NC(=O)[C@H](CC(=O)O)NC(=O)[C@H](CC(C)C)NC(=O)[C@H](Cc1c[nH]cn1)NC(=O)[C@H](C)NC(=O)[C@H](Cc1ccccc1)NC(=O)[C@H](Cc1ccc(O)cc1)NC(=O)[C@@H](NC(=O)[C@H](Cc1c[nH]c2ccccc12)NC(=O)[C@H](CC(=O)O)NC(=O)[C@@H]1CCCN1C(=O)[C@H](C)NC(=O)[C@@H](NC(=O)CNC(=O)[C@H](CCCCN)NC(=O)[C@H](Cc1c[nH]c2ccccc12)NC(=O)[C@H](CC(N)=O)NC(=O)CN)[C@@H](C)O)C(C)C)C(=O)N[C@H](C(=O)N[C@@H](Cc1c[nH]c2ccccc12)C(=O)O)[C@@H](C)CC [Compound I-44] | 0.29 nM

Reference: patent publication US6642355B2, “Endothelin-antagonizing peptide” (priority 1991, dated 2003)
